According to paper PMC7614683, “A small molecule PI3Kα activator for cardioprotection and neuroregeneration” (Nature, 2023):
Where two headings read alike, the source gives them in different places.

What was measured:
Test in all cases: SelectScreen Z-LYTE kinase activity assay (SI Table 6)
Assay type in all cases: biochemical
[1] = molecular target: T1, protein kinases of the Z-LYTE panel (Homo sapiens, UniProt Q8IW41)
T1 sequence (Q8IW41 1-473): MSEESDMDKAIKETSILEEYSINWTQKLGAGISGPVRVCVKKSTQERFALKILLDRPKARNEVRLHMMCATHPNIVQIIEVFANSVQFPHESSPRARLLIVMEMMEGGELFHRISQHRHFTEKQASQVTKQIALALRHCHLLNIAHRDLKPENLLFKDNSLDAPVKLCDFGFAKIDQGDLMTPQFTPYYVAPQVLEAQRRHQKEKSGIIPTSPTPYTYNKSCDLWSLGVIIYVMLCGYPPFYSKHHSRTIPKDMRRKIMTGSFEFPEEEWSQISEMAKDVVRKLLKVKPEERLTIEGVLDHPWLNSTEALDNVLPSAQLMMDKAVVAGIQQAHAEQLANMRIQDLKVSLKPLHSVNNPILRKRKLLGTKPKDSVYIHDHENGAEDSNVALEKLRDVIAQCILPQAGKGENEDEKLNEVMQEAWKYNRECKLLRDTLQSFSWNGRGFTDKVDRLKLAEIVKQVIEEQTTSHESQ
Summary of the method: (§1)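 Single-point profiling, 1 μM 1938; LanthaScreen binding, Adapta or Z-LYTE read-outs; 133 protein + 7 lipid kinases.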

[2] = molecular target: protein kinases of the Z-LYTE panel (Homo sapiens, UniProt P42345)
Summary of the method: as §1

[3] = molecular target: protein kinases of the Z-LYTE panel (Homo sapiens, UniProt Q02750); details: MAP2K1 (MEK1), 1000 nM, [ATP] 100 μM
Summary of the method: as §1

[4] = molecular target: protein kinases of the Z-LYTE panel (Homo sapiens, UniProt P00533, L858R/T790M)
Summary of the method: as §1

[5] = molecular target: protein kinases of the Z-LYTE panel (Homo sapiens, UniProt P10721)
Summary of the method: as §1

[6] = molecular target: protein kinases of the Z-LYTE panel (Homo sapiens, UniProt Q9HCP0)
Sequence of protein kinases of the Z-LYTE panel (Homo sapiens, UniProt Q9HCP0) (Q9HCP0 whole entry): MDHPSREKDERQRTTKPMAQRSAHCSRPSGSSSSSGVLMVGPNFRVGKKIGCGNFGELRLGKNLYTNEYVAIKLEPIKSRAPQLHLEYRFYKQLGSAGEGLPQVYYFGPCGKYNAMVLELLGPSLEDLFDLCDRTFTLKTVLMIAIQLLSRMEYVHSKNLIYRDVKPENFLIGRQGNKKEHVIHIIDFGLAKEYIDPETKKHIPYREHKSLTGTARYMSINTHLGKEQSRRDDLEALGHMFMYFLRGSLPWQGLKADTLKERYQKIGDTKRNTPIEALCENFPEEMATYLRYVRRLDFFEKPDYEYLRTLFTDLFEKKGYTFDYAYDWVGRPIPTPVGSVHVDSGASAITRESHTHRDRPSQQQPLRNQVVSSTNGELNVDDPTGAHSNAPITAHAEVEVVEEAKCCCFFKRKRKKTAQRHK
Summary of the method: as §1

[7] = molecular target: protein kinases of the Z-LYTE panel (Homo sapiens, UniProt P07947)
Sequence of protein kinases of the Z-LYTE panel (Homo sapiens, UniProt P07947) (P07947 whole entry): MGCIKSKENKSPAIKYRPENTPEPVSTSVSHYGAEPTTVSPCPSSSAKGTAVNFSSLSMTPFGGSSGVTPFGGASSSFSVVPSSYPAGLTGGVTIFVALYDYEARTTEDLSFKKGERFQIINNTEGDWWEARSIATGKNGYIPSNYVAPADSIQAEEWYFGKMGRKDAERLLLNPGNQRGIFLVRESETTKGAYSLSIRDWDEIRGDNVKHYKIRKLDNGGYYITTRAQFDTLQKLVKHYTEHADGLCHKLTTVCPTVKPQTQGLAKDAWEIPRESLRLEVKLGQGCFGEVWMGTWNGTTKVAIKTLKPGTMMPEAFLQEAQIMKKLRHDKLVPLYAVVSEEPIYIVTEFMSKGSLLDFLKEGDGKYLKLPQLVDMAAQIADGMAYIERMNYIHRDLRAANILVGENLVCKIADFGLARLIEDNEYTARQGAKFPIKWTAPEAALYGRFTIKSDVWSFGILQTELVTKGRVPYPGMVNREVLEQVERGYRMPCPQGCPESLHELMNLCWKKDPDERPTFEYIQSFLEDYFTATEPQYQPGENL
Summary of the method: as §1

[8] = molecular target: protein kinases of the Z-LYTE panel (Homo sapiens, UniProt P78527)
Sequence of protein kinases of the Z-LYTE panel (Homo sapiens, UniProt P78527) (P78527 whole entry): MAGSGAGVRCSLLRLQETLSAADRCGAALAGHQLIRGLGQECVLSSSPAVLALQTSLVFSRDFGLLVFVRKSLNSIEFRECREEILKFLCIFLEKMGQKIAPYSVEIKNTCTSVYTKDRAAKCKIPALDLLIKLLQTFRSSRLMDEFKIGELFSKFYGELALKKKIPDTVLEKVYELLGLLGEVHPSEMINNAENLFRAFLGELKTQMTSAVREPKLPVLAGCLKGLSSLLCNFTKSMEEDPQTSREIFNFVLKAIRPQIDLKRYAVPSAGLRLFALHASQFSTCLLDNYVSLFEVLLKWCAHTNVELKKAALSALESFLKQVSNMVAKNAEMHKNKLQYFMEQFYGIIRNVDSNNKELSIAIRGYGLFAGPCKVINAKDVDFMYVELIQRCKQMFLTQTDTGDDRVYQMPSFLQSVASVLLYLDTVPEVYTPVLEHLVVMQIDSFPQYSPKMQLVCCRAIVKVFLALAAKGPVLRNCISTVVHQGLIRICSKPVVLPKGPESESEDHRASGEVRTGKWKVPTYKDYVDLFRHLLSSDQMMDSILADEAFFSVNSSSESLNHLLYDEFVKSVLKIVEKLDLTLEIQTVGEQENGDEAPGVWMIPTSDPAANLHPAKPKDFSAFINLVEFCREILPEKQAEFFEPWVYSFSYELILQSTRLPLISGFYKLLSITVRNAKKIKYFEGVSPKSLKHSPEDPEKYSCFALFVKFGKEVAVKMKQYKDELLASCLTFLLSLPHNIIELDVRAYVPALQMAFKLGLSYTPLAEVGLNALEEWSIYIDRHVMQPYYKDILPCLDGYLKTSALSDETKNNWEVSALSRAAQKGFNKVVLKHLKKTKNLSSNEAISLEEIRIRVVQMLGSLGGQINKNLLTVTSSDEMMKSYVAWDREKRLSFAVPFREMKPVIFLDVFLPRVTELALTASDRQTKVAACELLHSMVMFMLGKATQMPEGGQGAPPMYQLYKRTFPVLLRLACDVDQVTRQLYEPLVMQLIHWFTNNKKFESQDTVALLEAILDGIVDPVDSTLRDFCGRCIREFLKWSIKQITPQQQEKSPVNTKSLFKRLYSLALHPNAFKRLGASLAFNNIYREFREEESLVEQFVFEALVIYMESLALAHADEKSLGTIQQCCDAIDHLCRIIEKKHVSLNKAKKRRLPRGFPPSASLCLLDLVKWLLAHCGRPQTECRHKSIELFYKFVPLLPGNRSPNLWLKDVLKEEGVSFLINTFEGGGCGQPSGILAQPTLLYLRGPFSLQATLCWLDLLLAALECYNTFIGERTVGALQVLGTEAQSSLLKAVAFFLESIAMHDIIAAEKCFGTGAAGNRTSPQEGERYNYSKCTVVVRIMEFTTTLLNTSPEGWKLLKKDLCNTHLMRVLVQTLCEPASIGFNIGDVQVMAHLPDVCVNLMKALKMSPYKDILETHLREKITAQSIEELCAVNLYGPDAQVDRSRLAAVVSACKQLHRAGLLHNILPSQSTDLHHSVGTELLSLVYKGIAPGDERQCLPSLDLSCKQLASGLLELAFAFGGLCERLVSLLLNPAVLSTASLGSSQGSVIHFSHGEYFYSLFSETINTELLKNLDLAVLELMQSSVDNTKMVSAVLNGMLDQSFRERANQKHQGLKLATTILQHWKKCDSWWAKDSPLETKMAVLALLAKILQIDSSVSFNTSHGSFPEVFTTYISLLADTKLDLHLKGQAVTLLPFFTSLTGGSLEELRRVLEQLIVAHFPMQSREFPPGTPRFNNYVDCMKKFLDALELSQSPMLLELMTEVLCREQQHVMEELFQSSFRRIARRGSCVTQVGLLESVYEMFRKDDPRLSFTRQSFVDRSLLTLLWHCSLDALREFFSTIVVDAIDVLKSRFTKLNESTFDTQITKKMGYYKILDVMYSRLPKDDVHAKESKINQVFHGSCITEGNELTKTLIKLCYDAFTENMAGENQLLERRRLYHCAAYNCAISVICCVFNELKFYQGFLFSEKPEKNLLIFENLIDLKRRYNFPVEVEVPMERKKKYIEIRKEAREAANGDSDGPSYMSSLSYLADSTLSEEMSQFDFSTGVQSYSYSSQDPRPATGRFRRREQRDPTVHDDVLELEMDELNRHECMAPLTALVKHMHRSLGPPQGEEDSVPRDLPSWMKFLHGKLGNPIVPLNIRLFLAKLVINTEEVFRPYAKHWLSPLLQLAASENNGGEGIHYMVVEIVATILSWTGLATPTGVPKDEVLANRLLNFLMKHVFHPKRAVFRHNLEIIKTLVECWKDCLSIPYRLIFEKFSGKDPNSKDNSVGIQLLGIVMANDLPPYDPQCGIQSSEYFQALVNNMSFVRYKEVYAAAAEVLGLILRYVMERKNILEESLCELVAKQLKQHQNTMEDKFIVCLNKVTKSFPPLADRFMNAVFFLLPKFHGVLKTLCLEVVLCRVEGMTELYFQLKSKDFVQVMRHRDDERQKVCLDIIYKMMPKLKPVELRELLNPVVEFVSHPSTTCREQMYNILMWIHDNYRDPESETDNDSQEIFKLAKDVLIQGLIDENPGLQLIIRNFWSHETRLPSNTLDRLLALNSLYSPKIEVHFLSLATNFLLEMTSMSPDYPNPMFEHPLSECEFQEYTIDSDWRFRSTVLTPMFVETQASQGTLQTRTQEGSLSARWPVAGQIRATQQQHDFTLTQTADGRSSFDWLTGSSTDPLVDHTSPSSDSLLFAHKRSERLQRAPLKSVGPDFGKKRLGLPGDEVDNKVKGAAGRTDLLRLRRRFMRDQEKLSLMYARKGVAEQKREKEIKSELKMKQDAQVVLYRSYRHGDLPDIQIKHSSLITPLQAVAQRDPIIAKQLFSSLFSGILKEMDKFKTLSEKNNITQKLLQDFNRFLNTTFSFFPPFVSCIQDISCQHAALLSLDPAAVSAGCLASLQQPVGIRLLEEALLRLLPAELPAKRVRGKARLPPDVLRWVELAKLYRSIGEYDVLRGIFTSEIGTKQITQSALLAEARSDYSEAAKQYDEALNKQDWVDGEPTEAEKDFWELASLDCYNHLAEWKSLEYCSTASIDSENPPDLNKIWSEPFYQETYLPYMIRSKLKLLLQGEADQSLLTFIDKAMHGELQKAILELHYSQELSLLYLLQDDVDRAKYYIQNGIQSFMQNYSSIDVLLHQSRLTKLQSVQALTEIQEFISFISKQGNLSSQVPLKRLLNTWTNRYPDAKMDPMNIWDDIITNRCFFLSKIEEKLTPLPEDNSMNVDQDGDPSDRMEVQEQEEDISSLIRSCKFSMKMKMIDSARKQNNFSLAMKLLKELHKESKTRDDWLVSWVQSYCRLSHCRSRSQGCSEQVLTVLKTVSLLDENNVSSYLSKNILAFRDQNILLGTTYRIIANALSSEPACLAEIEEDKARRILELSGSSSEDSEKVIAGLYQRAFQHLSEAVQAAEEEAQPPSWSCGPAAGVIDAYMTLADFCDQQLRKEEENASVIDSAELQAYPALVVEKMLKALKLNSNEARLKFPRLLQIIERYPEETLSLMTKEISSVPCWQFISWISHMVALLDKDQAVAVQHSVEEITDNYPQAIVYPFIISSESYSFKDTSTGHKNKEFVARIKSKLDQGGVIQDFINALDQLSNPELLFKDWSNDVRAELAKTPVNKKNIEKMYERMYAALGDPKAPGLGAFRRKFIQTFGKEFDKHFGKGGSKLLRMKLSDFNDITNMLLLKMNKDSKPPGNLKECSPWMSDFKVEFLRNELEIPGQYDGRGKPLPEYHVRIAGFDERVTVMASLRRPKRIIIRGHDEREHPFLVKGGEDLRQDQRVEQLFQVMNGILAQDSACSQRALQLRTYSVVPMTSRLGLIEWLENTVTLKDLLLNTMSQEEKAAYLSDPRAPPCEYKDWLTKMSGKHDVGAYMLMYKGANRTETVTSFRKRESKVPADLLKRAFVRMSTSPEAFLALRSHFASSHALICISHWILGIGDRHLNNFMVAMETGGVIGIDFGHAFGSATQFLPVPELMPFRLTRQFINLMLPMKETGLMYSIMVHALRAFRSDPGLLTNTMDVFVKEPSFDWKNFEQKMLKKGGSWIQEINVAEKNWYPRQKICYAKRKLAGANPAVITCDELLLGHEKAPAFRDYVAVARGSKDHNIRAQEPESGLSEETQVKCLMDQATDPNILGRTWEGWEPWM
Summary of the method: as §1

[9] = molecular target: T2, protein kinases of the Z-LYTE panel (Homo sapiens, UniProt O14757)
T2 sequence (O14757 1-476): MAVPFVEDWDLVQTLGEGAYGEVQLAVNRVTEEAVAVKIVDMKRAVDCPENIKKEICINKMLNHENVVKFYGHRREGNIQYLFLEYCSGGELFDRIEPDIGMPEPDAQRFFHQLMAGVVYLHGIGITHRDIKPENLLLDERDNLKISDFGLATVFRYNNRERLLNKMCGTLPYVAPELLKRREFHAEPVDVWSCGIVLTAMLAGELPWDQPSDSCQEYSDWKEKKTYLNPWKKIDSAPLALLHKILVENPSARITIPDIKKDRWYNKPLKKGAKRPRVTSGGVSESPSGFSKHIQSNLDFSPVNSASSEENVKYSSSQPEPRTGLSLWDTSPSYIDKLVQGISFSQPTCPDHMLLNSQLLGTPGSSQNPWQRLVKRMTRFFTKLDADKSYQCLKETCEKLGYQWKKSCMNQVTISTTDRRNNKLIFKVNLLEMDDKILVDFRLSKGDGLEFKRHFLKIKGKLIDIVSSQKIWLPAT
Summary of the method: as §1

Structure (SMILES): CCN1CCN(c2ccc(Nc3cc(Nc4cccc5c4N(C(C)=O)CC5)ccn3)cc2)CC1 [Compound 1938]
- inhibition at 1 µM ([1]; read-out: % Inhibition Point 1): 2.18%
- inhibition at 1 µM ([1]; read-out: % Inhibition Point 2): 2.77%
- inhibition at 1 µM ([1]; read-out: % Inhibition mean): 2.48%
- inhibition at 1 µM ([2]; read-out: % Inhibition Point 1): -3.66%
- inhibition at 1 µM ([2]; read-out: % Inhibition Point 2): -2.5%
- inhibition at 1 µM ([2]; read-out: % Inhibition mean): -3%
- inhibition at 1 µM ([3]; read-out: % Inhibition Point 1): 4%
- inhibition at 1 µM ([3]; read-out: % Inhibition Point 2): 3.36%
- inhibition at 1 µM ([3]; read-out: % Inhibition mean): 3.61%
- inhibition at 1 µM ([4]; read-out: % Inhibition Point 1): 12%
- inhibition at 1 µM ([4]; read-out: % Inhibition Point 2): 12%
- inhibition at 1 µM ([4]; read-out: % Inhibition mean): 12%
- inhibition at 1 µM ([5]; read-out: % Inhibition Point 1): 6.43%
- inhibition at 1 µM ([5]; read-out: % Inhibition Point 2): 8%
- inhibition at 1 µM ([5]; read-out: % Inhibition mean): 7%
- inhibition at 1 µM ([6]; read-out: % Inhibition Point 1): 0.622%
- inhibition at 1 µM ([6]; read-out: % Inhibition Point 2): -0.215%
- inhibition at 1 µM ([6]; read-out: % Inhibition mean): 0.204%
- inhibition at 1 µM ([7]; read-out: % Inhibition Point 1): 27%
- inhibition at 1 µM ([7]; read-out: % Inhibition Point 2): 30%
- inhibition at 1 µM ([7]; read-out: % Inhibition mean): 29%
- inhibition at 1 µM ([8]; read-out: % Inhibition Point 1): 9.47%
- inhibition at 1 µM ([8]; read-out: % Inhibition Point 2): 10%
- inhibition at 1 µM ([8]; read-out: % Inhibition mean): 10%
- inhibition at 1 µM ([9]; read-out: % Inhibition Point 1): 2%
- inhibition at 1 µM ([9]; read-out: % Inhibition Point 2): -3.79%
- inhibition at 1 µM ([9]; read-out: % Inhibition mean): -0.889%
